{"source": "patent US20190083407A1", "about": "“CRYSTALLIZATION METHOD AND BIOAVAILABILITY” (priority 2015, published 2019)", "key": {"[1]": {"assay": "Aqueous solubility at room temperature", "details": "for Aqueous solubility, mMol/L (complex): as complex"}, "[2]": {"details": "72 hr dog study; cited from earlier work"}, "[3]": {"details": "cited from earlier work; for Mortality: solutions in capsules"}, "[4]": {"details": "FDA Summary Basis of Approval; cited from earlier work"}, "[5]": {"assay": "Rat PK study: plasma concentrations of zoledronic acid from pure zoledronic acid and complexes delivered IV, oral gavage and ID", "type": "in vivo, Sprague-Dawley Rats", "description": "These studies were conducted on rats and dogs as they are suitable animal models for zoledronic acid. This can be attributed to the fact that both animals have historically been used in the safety evaluation and PK screening studies and are recommended by appropriate regulatory agencies. […] Pure zoledronic acid and zoledronic acid complexes prepared by the methods in this invention were delivered to the rats and dogs through IV or oral routes. Additional tests included ID administration in rats and administration of enteric coated capsules in dogs. All compounds delivered were well tolerated by the animals with no adverse events or physical abnormalities noticed. […] USA. Some animals have surgical catheters (jugular vein and intraduodenum) were implanted to the animals prior to the studies. […] Surgical catheters (jugular vein) were implanted prior to the studies. […] Routes of Rat Dosing: Zoledronic acid and its complex formulations were administered through IV, oral and ID. […] The dose of each rat was calculated on a per rat basis (not on an average weight of all the rats in the lot). • ii. Oral gavage administration: solid suspensions were administered. The dose of each rat was calculated on a per rat basis (not on an average weight of all the rats in the lot). […] Duodenal cannula administration: solid suspensions were administered. The dose of each rat was calculated on a per rat basis (not on an average weight of all the rats in the lot). […] Groups: Two major groups of animals were selected for the study. • Group 1 consists of rat studies. […] Group I (IV Administration): Group Members, Designated IV Doses are Listed Below: [table] Group II (oral gavage): Group designations and oral doses are listed below: […] Group III (ID Administration): Group Designations and Oral Doses are Listed Below: [table] Rat blood sample collection, handling and analysis: […] Samples were thawed on the day of analysis and the amount of zoledronic acid in the samples was quantified by analyzed by LC/MS/MS method. Rat study: […]"}}, "note": "Where two headings read alike, the source gives them in different places."}
{"molecule": "NCCCCC(N)C(=O)O.O.O=P(O)(O)C(O)(Cn1ccnc1)P(=O)(O)O", "note": "[ZA: DL-Lysine monohydrate]", "values": [{"measurement": "Aqueous solubility, Conc.", "setting": "[1]", "value": 13.9, "unit": "mg/mL"}, {"measurement": "Aqueous solubility, mMol/L (complex)", "setting": "[1]", "value": 31.86, "unit": "mmol/L"}]}
{"molecule": "NCCCCC(N)C(=O)O.O.O.O=P(O)(O)C(O)(Cn1ccnc1)P(=O)(O)O", "note": "[ZA: L-Lysine dihydrate]", "values": [{"measurement": "Aqueous solubility, Conc.", "setting": "[1]", "value": 8.22, "unit": "mg/mL"}, {"measurement": "Aqueous solubility, mMol/L (complex)", "setting": "[1]", "value": 18.09, "unit": "mmol/L"}]}
{"molecule": "O=P(O)(O)C(O)(Cn1ccnc1)P(=O)(O)O", "note": "[Zoledronic acid, (1-hydroxy-2-imidazol-1-yl-1-phosphono-ethyl)phosphonic acid]", "values": [{"measurement": "AUC", "setting": "[2]", "value": 2217, "unit": "ng·h/mL"}, {"measurement": "Mortality (dogs)", "setting": "[3]; 10 mg/kg administered directly to the stomach", "value": "⅓"}, {"measurement": "Mortality (dogs)", "setting": "[3]; 25 mg/kg, same formulation", "value": "3/3"}, {"measurement": "AUC 0-24 hr", "setting": "[3]; dogs, 10 mg/kg administered directly to the stomach", "value": 1254, "unit": "ng·h/mL"}, {"measurement": "AUC 0-24", "setting": "[3]; dogs, 25 mg/kg, same formulation", "value": 7319, "unit": "ng·h/mL"}, {"measurement": "Mortality", "setting": "[3]; dogs, 10 mg/kg/day, one formulation", "value": 30, "unit": "%"}, {"measurement": "Mortality", "setting": "[3]; dogs, another formulation, 25 mg/Kg", "value": 100, "unit": "%"}, {"measurement": "Oral bioavailability", "setting": "[4]", "value": "less than 1%"}]}
{"molecule": "O=P([O-])(O)C(O)(Cn1ccnc1)P(=O)([O-])O.[Na+].[Na+]", "note": "[disodium zoledronate salt]", "values": [{"measurement": "AUC", "setting": "[2]", "value": 4073, "unit": "ng·h/mL"}]}
{"molecule": "Zoledronic, nicotinamide, and water complex", "values": [{"measurement": "Average plasma concentration of 3 rats", "setting": "[5]; ID 5 mg/kg zoledronic acid equivalent, PEG 400, 8 hour", "value": 0.00, "unit": "ng/mL"}, {"measurement": "Average plasma concentration of 3 rats", "setting": "[5]; ID 5 mg/kg zoledronic acid equivalent, PEG 400, 24 hour", "value": 0.00, "unit": "ng/mL"}, {"measurement": "Average plasma concentration of 3 rats", "setting": "[5]; PO 5 mg/kg zoledronic acid equivalent, PEG 400, 24 hour", "value": 0.00, "unit": "ng/mL"}]}
